# Experimental data as given in US7425580B2, “(Diaryl-methyl)-malononitriles and their use as estrogen receptor ligands” (Wyeth, priority 2004, dated 2008).
# Test system: NF-κB target genes (MHC invariant chain, VCAM-1, RANTES, TNF-α mRNA)
# Experiment: Liver inflammatory gene expression (real time RT-PCR) in ovariectomized C57BL/6 mice on atherogenic diet
# Format: in vivo
# Settings: EE 0.01 mg/kg daily
# Experimental: (§1) Ovariectomized C57BL/6 mice (16-20 g) (Taconic) were separated into groups of 8. After 5-7 days of recuperation, the mice were fed a chow diet or an atherogenic diet (15.75% fat, 1.25% cholesterol and 0.5% sodium cholate) (Purina diet #21539). EE or test compound was administered once daily by gavage in a methylcellulose/tween vehicle (0.1 ml per mouse) for 5 weeks. At the end of the experimental period, the liver was collected and uterine wet weight was recorded.
# Liver total RNA was prepared by using Trizol reagent (BRL). Estrogen and compound regulation of NF-κB target genes were verified by real time RT-PCR using an ABI PRISM 7700 Sequence Detection System according to the manufacturer's protocol (Applied Biosystems). The data was analyzed using the Sequence Detector v1.7 software (Applied Biosystems) and normalized to GAPDH using the Applied Biosystems primer set.
# To determine the ability of estrogens to regulate the development of diet-induced inflammation in the liver, gene expression changes resulting from the atherogenic diet were monitored. Ovariectomized C57BL/6 mice were fed either a chow or atherogenic diet and treated daily with EE (0.01 mg/kg) or test compound (10 mg/kg) (Table 3).
row,Compound,"Atherogenic diet induction of mRNA for MHC invariant chain, VCAM-1, RANTES and TNF-α in liver"
1,"C#C[C@]1(O)CC[C@H]2[C@@H]3CCc4cc(O)ccc4[C@H]3CC[C@@]21C [EE, 17α-ethinyl-17β-estradiol, reference compound]",strongly suppressed

# Test system: NF-κB
# Experiment: NF-κB luciferase reporter in Ad5-wt-ER infected HAECT-1 cells (IL-1β stimulated)
# Format: cell-based, human
# Settings: Ad5-wt-ER infected HAECT-1 cells
# Experimental: (§2) T-175 flasks of 100% confluent HAECT-1 cells (immortalized human aortic endothelial cells) were washed with 8 ml of HBSS (HEPES buffered saline solution) and infected for four hours with 6 ml of a 1:10 dilution of Ad5-wt-hERα virus (an adenovirus transfection vector that mediates CMV promoter driven expression of human ERα) in phenol red free Endothelial Cell Basal medium (Clonetics, San Diego Calif., Catalog # CC-3129) containing 0.25% bovine serum albumin (EBM-BSA). After four hours, cells were washed with EBM-BSA and incubated overnight in the same medium. Following overnight incubation, cells were washed with EBM-BSA and infected for 2 hours with 6 ml of a 1:10 dilution of Ad5-3×(NFKκB).Luc virus (Adenovirus luciferase expression vector driven by 3 repeats of the MHC NFκβ site 5′ to the thymidine kinase promoter) in EBM-BSA. After two hours, cells were washed and incubated at 34° C. for 1 hour. Cells were then washed, trypsinized, counted and resuspended in 95% FBS/5% dimethylsulfoxide at a concentration of 4×10^6 cells/ml, frozen as 1 or 5 ml aliquots in cryo-vials and stored at −150° C. Control (no ER infection) cells were processed as above without Ad5-wt-hERα virus infection.
# (§3) ERα infected HAECT-1 cells or control cells were thawed, diluted 42× in warm EBM-BSA, plated into 96-well plates at 0.1 ml/well and incubated for 4 h at 34° C. Test compounds were added to the cells as 2× stocks in EBM-BSA containing 2 ng/ml IL-1β (R&D Systems) and plates were returned to the incubator (34° C.). After 15-20 h, 100 μl aliquots of media were removed from the cells and assayed for IL-6 content using a BioSource human IL-6 ELISA Kit. Cells were subsequently washed with 300 μl of Dulbecco's phosphate buffered saline and lysed in 50 μl of Cell Culture Lysis Reagent (Promega). Luciferase was determined on a Wallac Victor^2 Luminometer (Gaithersburg, Md.) using 10 μl of lysate and mixing with 100 μl of Promega Luciferase Assay reagent. Creatine kinase was determined from the rate of increase in A340 following addition of 100 μl of CK assay reagent (Sigma, cat. No 47-10) to the remainder of the cell lysate.
# (§4) For IC50 and EC50 calculations, mean IL-6, luciferase or CK values versus log10 of the compound concentration were fitted to a four parameter logistic equation. The IC50/EC50 value, ‘Hill slope’, upper and lower limits of the curve were iteratively estimated.
row,Compound,IC50
1,"N#CC(C#N)C(c1cccc2ccccc12)c1cccc2ccccc12 [Ex. 8, 2-[Di(1-naphthyl)methyl]malononitrile]",581 nM
2,"COc1ccccc1C(c1cccc2ccccc12)C(C)(C#N)C#N (stereo not drawn) [Ex. 7, 2-[(2-Methoxyphenyl)(1-naphthyl)methyl]-2-methylmalononitrile]",17.5 nM

# Same assay, conditions: Homo sapiens, HAECT1, Ad5-wt-ER infected HAECT-1 cells
row,Compound,IC50
1,"N#CC(C#N)C(c1cccc2ccccc12)c1cccc2ccccc12 [Ex. 8, 2-[Di(1-naphthyl)methyl]malononitrile]",768 nM
2,"COc1cccc(C(c2cccc3ccccc23)C(C#N)C#N)c1 (stereo not drawn) [Ex. 3, 2-[(3-Methoxyphenyl)(1-naphthyl)methyl]malononitrile]",853 nM
3,"Cc1ccc(C(c2cccc3ccccc23)C(C#N)C#N)cc1 (stereo not drawn) [Ex. 5, 2-[(4-Methylphenyl)(1-naphthyl)methyl]malononitrile]",1660 nM
4,"COc1ccc(C(c2cccc3ccccc23)C(C#N)C#N)cc1 (stereo not drawn) [Ex. 6, 2-[(4-Methoxyphenyl)(1-naphthyl)methyl]malononitrile]",1640 nM
5,"COc1ccccc1C(c1cccc2ccccc12)C(C)(C#N)C#N (stereo not drawn) [Ex. 7, 2-[(2-Methoxyphenyl)(1-naphthyl)methyl]-2-methylmalononitrile]",9.9 nM

# Same assay, conditions: Homo sapiens, HAECT1, Ad5-wt-ER infected HAECT-1 cells; relative to maximal inhibition observed with E2; read-out: NF-κB Efficacy
row,Compound,Emax
1,"N#CC(C#N)C(c1cccc2ccccc12)c1cccc2ccccc12 [Ex. 8, 2-[Di(1-naphthyl)methyl]malononitrile]",176%
2,"COc1cccc(C(c2cccc3ccccc23)C(C#N)C#N)c1 (stereo not drawn) [Ex. 3, 2-[(3-Methoxyphenyl)(1-naphthyl)methyl]malononitrile]",138%
3,"Cc1ccc(C(c2cccc3ccccc23)C(C#N)C#N)cc1 (stereo not drawn) [Ex. 5, 2-[(4-Methylphenyl)(1-naphthyl)methyl]malononitrile]",154%
4,"COc1ccc(C(c2cccc3ccccc23)C(C#N)C#N)cc1 (stereo not drawn) [Ex. 6, 2-[(4-Methoxyphenyl)(1-naphthyl)methyl]malononitrile]",137%
5,"COc1ccccc1C(c1cccc2ccccc12)C(C)(C#N)C#N (stereo not drawn) [Ex. 7, 2-[(2-Methoxyphenyl)(1-naphthyl)methyl]-2-methylmalononitrile]",98%

# Test system: IL-6
# Experiment: IL-6 expression (ELISA) in Ad5-wt-ER infected HAECT-1 cells (IL-1β stimulated)
# Format: cell-based, human
# Settings: Ad5-wt-ER infected HAECT-1 cells
# Experimental: as §2, §3, §4
row,Compound,IC50
1,"C[C@]12CC[C@@H]3c4ccc(O)cc4CC[C@H]3[C@@H]1CC[C@@H]2O [Example E2, 17β-estradiol, reference compound]",1.7 nM

# Same assay, conditions: Ad5-wt-ER infected HAECT-1 cells; relative to maximal inhibition observed with E2
row,Compound,IL-6 Efficacy
1,"COc1ccccc1C(c1cccc2ccccc12)C(C#N)C#N (stereo not drawn) [Ex. 1, 2-[(2-Methoxyphenyl)(1-naphthyl)methyl]malononitrile]",118%
2,"N#CC(C#N)C(c1cccc2ccccc12)c1cccc2ccccc12 [Ex. 8, 2-[Di(1-naphthyl)methyl]malononitrile]",152%
3,"COc1cccc(C(c2cccc3ccccc23)C(C#N)C#N)c1 (stereo not drawn) [Ex. 3, 2-[(3-Methoxyphenyl)(1-naphthyl)methyl]malononitrile]",92%
4,"Cc1ccccc1C(c1cccc2ccccc12)C(C#N)C#N (stereo not drawn) [Ex. 4, 2-[(2-Methylphenyl)(1-naphthyl)methyl]malononitrile]",127%
5,"C[C@]12CC[C@@H]3c4ccc(O)cc4CC[C@H]3[C@@H]1CC[C@@H]2O [Example E2, 17β-estradiol, reference compound]",100%
6,"COc1ccccc1C(c1cccc2ccccc12)C(C)(C#N)C#N (stereo not drawn) [Ex. 7, 2-[(2-Methoxyphenyl)(1-naphthyl)methyl]-2-methylmalononitrile]",144%

# Same assay, conditions: Homo sapiens, HAECT1, Ad5-wt-ER infected HAECT-1 cells
row,Compound,IC50
1,"COc1ccccc1C(c1cccc2ccccc12)C(C#N)C#N (stereo not drawn) [Ex. 1, 2-[(2-Methoxyphenyl)(1-naphthyl)methyl]malononitrile]",1220 nM
2,"N#CC(C#N)C(c1cccc2ccccc12)c1cccc2ccccc12 [Ex. 8, 2-[Di(1-naphthyl)methyl]malononitrile]",560 nM
3,"COc1cccc(C(c2cccc3ccccc23)C(C#N)C#N)c1 (stereo not drawn) [Ex. 3, 2-[(3-Methoxyphenyl)(1-naphthyl)methyl]malononitrile]",1040 nM
4,"Cc1ccccc1C(c1cccc2ccccc12)C(C#N)C#N (stereo not drawn) [Ex. 4, 2-[(2-Methylphenyl)(1-naphthyl)methyl]malononitrile]",1010 nM
5,"COc1ccccc1C(c1cccc2ccccc12)C(C)(C#N)C#N (stereo not drawn) [Ex. 7, 2-[(2-Methoxyphenyl)(1-naphthyl)methyl]-2-methylmalononitrile]",24 nM

# Test system: NF-κB
# Experiment: NF-κB luciferase reporter in non ER infected HAECT-1 cells
# Format: cell-based, human
# Settings: not given
# Experimental: T-175 flasks of 100% confluent HAECT-1 cells (immortalized human aortic endothelial cells) were washed with 8 ml of HBSS (HEPES buffered saline solution) and infected for four hours with 6 ml of a 1:10 dilution of Ad5-wt-hERα virus (an adenovirus transfection vector that mediates CMV promoter driven expression of human ERα) in phenol red free Endothelial Cell Basal medium (Clonetics, San Diego Calif., Catalog # CC-3129) containing 0.25% bovine serum albumin (EBM-BSA). After four hours, cells were washed with EBM-BSA and incubated overnight in the same medium. […] Cells were then washed, trypsinized, counted and resuspended in 95% FBS/5% dimethylsulfoxide at a concentration of 4×10^6 cells/ml, frozen as 1 or 5 ml aliquots in cryo-vials and stored at −150° C. […]
# ERα infected HAECT-1 cells or control cells were thawed, diluted 42× in warm EBM-BSA, plated into 96-well plates at 0.1 ml/well and incubated for 4 h at 34° C. […] Luciferase was determined on a Wallac Victor^2 Luminometer (Gaithersburg, Md.) using 10 μl of lysate and mixing with 100 μl of Promega Luciferase Assay reagent. Creatine kinase was determined from the rate of increase in A340 following addition of 100 μl of CK assay reagent (Sigma, cat. No 47-10) to the remainder of the cell lysate. […]
row,Compound,NF-κB IC50
1,"COc1ccccc1C(c1cccc2ccccc12)C(C#N)C#N (stereo not drawn) [Ex. 1, 2-[(2-Methoxyphenyl)(1-naphthyl)methyl]malononitrile]",inactive
2,"COc1ccccc1C(c1cccc2ccccc12)C(C)(C#N)C#N (stereo not drawn) [Ex. 7, 2-[(2-Methoxyphenyl)(1-naphthyl)methyl]-2-methylmalononitrile]",inactive

# Test system: uterine wet weight
# Experiment: Uterine wet weight increase in ovariectomized C57BL/6 mice
# Format: in vivo
# Settings: EE 0.01 mg/kg/day, test compound 10 mg/kg/day, gavage, 5 weeks
# Experimental: as §1, with “recorded. To determine the ability of estrogens to regulate the development of diet-induced inflammation in the liver, gene expression changes resulting from the atherogenic diet were monitored. Ovariectomized C57BL/6 mice were fed either a chow or atherogenic diet and treated daily with EE (0.01 mg/kg) or test compound (10 mg/kg) (Table 3).” for “recorded.”
row,Compound,"Uterine Wet Weight Increase, Efficacy"
1,"C#C[C@]1(O)CC[C@H]2[C@@H]3CCc4cc(O)ccc4[C@H]3CC[C@@]21C [EE, 17α-ethinyl-17β-estradiol, reference compound]",100%
2,"COc1ccccc1C(c1cccc2ccccc12)C(C)(C#N)C#N (stereo not drawn) [Ex. 7, 2-[(2-Methoxyphenyl)(1-naphthyl)methyl]-2-methylmalononitrile]",18%

# Same assay, conditions: EE 0.01 mg/kg/day, test compound 10 mg/kg/day, gavage, 5 weeks; compared to vehicle control
row,Compound,"Uterine Wet Weight Increase, Fold Increase"
1,"C#C[C@]1(O)CC[C@H]2[C@@H]3CCc4cc(O)ccc4[C@H]3CC[C@@]21C [EE, 17α-ethinyl-17β-estradiol, reference compound]",5.0
2,"COc1ccccc1C(c1cccc2ccccc12)C(C)(C#N)C#N (stereo not drawn) [Ex. 7, 2-[(2-Methoxyphenyl)(1-naphthyl)methyl]-2-methylmalononitrile]",2.2

# Test system: creatine kinase
# Experiment: Creatine kinase expression in Ad5-wt-ER infected HAECT-1 cells
# Format: cell-based, human
# Settings: Homo sapiens, HAECT1, stimulation of CK
# Experimental: as §2, §3, §4
row,Compound,IC50
1,"COc1ccccc1C(c1cccc2ccccc12)C(C#N)C#N (stereo not drawn) [Ex. 1, 2-[(2-Methoxyphenyl)(1-naphthyl)methyl]malononitrile]",8.7 nM
2,"C[C@]12CC[C@@H]3c4ccc(O)cc4CC[C@H]3[C@@H]1CC[C@@H]2O [Example E2, 17β-estradiol, reference compound]",5.8 nM
3,"COc1ccccc1C(c1cccc2ccccc12)C(C)(C#N)C#N (stereo not drawn) [Ex. 7, 2-[(2-Methoxyphenyl)(1-naphthyl)methyl]-2-methylmalononitrile]",30.7 nM

# Same assay, conditions: relative to maximal stimulation observed with E2
row,Compound,CK Efficacy
1,"COc1ccccc1C(c1cccc2ccccc12)C(C#N)C#N (stereo not drawn) [Ex. 1, 2-[(2-Methoxyphenyl)(1-naphthyl)methyl]malononitrile]",27%
2,"C[C@]12CC[C@@H]3c4ccc(O)cc4CC[C@H]3[C@@H]1CC[C@@H]2O [Example E2, 17β-estradiol, reference compound]",100%
3,"COc1ccccc1C(c1cccc2ccccc12)C(C)(C#N)C#N (stereo not drawn) [Ex. 7, 2-[(2-Methoxyphenyl)(1-naphthyl)methyl]-2-methylmalononitrile]",28%

# Test system: not given
# Experiment: not given
# Settings: not given
row,Compound,melting point
1,"N#CC(C#N)C(c1cccc2ccccc12)c1cccc2ccccc12 [Ex. 8, 2-[Di(1-naphthyl)methyl]malononitrile]",179 to 181 °C
2,"COc1ccccc1C(c1cccc2ccccc12)C(C)(C#N)C#N (stereo not drawn) [Ex. 7, 2-[(2-Methoxyphenyl)(1-naphthyl)methyl]-2-methylmalononitrile]",175 to 177 °C
